In US11548871B2, “Triazole carbamate pyridyl sulfonamides as LPA receptor antagonists and uses thereof” (Gilead Sciences, Inc., priority 2019, dated 2023):

Biological target: human LPAR1 (Homo sapiens, UniProt Q92633)
Assay: LPAR1 intracellular calcium mobilization assay (antagonist mode)
Experimental: In vitro LPAR1 activity was measured in an intracellular calcium mobilization assay.
Prior to testing cell media were aspirated from the cells and replaced with 20 μL Calcium Dye Loading Buffer (DiscoverX Calcium NoWash^PLUS Assay Kit cat #90-0091) and 2.5 mM Probenecid (Sigma Aldrich cat #P8761, prepared fresh) in HBSS/20 mM Hepes for 60 min at 37° C.
For agonist dose curves, cells were removed from the incubator after dye loading and 10 μL HBSS/20 mM Hepes including 3× vehicle was added. Cells were incubated for 30 min at room temperature in the dark to equilibrate plate temperatures. An intermediate LPA dilution series was prepared in assay buffer to generate 4× stock. Calcium mobilization was monitored on a FLIPR Tetra (MDS, San Jose, Calif.) for 2 min and 10 μL 4×LPA in HBSS/20 mM Hepes was added to the cells 5 s into the assay.
An intermediate antagonist dilution series was prepared as 3× samples in assay buffer. After dye loading, cells were removed from the incubator and 10 μL 3× antagonist was added. Cells were incubated for 30 min at room temperature in the dark to equilibrate plate temperatures. The final vehicle (DMSO) concentration was 1%. Compound antagonist activities was measured on a FLIPR Tetra. Calcium mobilization was monitored for 2 min and 10 μL EC80 agonist in HBSS/20 mM Hepes was added to the cells 5 s into the assay. Compound activity was analyzed using CBIS data analysis suite (ChemInnovation Software, San Diego, Calif.).

Sequence of human LPAR1 (Q92633 whole entry): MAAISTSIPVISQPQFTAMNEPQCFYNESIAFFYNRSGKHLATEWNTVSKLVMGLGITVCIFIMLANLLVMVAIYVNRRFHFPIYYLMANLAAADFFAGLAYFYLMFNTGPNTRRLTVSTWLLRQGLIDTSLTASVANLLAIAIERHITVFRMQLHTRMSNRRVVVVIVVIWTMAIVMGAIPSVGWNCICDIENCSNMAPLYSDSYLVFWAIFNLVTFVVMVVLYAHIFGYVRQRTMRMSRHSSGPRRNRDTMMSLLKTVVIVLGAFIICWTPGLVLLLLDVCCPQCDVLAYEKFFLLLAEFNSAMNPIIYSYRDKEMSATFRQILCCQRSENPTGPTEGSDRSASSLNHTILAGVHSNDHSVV

SMILES | EC50
Cn1nnc(-c2ccc(NS(=O)(=O)CC#N)cn2)c1NC(=O)O[C@@H](c1ccccc1)C(F)F [Compound 13, (S)-2,2-difluoro-1-phenylethyl(4-(5-((cyanomethyl)sulfonamido)pyridin-2-yl)-1-methyl-1H-1,2,3-triazol-5-yl)carbamate] | 71.4 nM
COCC(OC(=O)Nc1c(-c2ccc(NS(C)(=O)=O)c(C)n2)nnn1C)c1ccccc1 (centres unmarked) [Compound 34, 2-methoxy-1-phenylethyl (1-methyl-4-(6-methyl-5-(methylsulfonamido)pyridin-2-yl)-1H-1,2,3-triazol-5-yl)carbamate] | 469 nM
Cc1nc(-c2nnn(C)c2NC(=O)O[C@H](C)c2ccc(F)nc2C)ccc1NS(C)(=O)=O [Compound 143, (R)-1-(6-fluoro-2-methylpyridin-3-yl)ethyl (1-methyl-4-(6-methyl-5-(methylsulfonamido)pyridin-2-yl)-1H-1,2,3-triazol-5-yl)carbamate] | 330 nM
Cc1nc(-c2nnn(C)c2NC(=O)O[C@H](C)c2cc(Cl)sc2Cl)ccc1NS(C)(=O)=O [Compound 52, (R)-1-(2,5-dichlorothiophen-3-yl)ethyl (1-methyl-4-(6-methyl-5-(methylsulfonamido)pyridin-2-yl)-1H-1,2,3-triazol-5-yl)carbamate] | 16.7 nM
Cc1nc(-c2nnn(C)c2NC(=O)OC(C)c2cc(F)cnc2Br)ccc1NS(C)(=O)=O (centres unmarked) [Compound 126, 1-(2-bromo-5-fluoropyridin-3-yl)ethyl (1-methyl-4-(6-methyl-5-(methylsulfonamido)pyridin-2-yl)-1H-1,2,3-triazol-5-yl)carbamate] | 232 nM
Cc1nc(-c2nnn(C)c2NC(=O)N[C@H](C)c2ccccc2)ccc1NS(C)(=O)=O [Compound 64] | 2740 nM
Cc1ccc(C)c([C@@H](C)OC(=O)Nc2c(-c3ccc(NS(C)(=O)=O)c(C)n3)nnn2C)c1 [Compound 27, (R)-1-(2,5-dimethylphenyl)ethyl (1-methyl-4-(6-methyl-5-(methylsulfonamido)pyridin-2-yl)-1H-1,2,3-triazol-5-yl)carbamate] | 57.7 nM
Cc1nc(-c2nnn(C)c2NC(=O)O[C@H](C)c2cccc(F)c2)ccc1NS(=O)(=O)C1CC1 [Compound 106, (R)-1-(3-fluoro-phenyl)ethyl(4-(5-(cyclopropane-sulfonamido)-6-methylpyridin-2-yl)-1-methyl-1H-1,2,3-triazol-5-yl)carbamate] | 313 nM
Cc1nc(-c2nnn(C)c2NC(=O)O[C@H](C)c2cccc(F)c2)ccc1NS(=O)(=O)C1COC1 [Compound 109, (R)-1-(3-fluoro-phenyl)ethyl (1-methyl-4-(6-methyl-5-(oxetane-3-sulfonamido)pyridin-2-yl)-1H-1,2,3-triazol-5-yl)carbamate] | 705 nM
Cc1nc(-c2nnn(C)c2NC(=O)OCCCC(C)(C)C)ccc1NS(C)(=O)=O [Compound 30, 4,4-dimethylpentyl (1-methyl-4-(6-methyl-5-(methylsulfonamido)pyridin-2-yl)-1H-1,2,3-triazol-5-yl)carbamate] | 667 nM
Cc1nc(-c2nnn(C)c2NC(=O)OC2c3ccccc3CC2F)ccc1NS(C)(=O)=O (centres unmarked) [Compound 73, 2-fluoro-2,3-dihydro-1H-inden-1-yl (1-methyl-4-(6-methyl-5-(methylsulfonamido)pyridin-2-yl)-1H-1,2,3-triazol-5-yl)carbamate] | 3220 nM
Cc1nc(-c2nnn(C)c2NC(=O)O[C@@H](c2cc(F)ccc2F)C(F)F)ccc1NS(C)(=O)=O [Compound 26, (S)-1-(2,5-difluorophenyl)-2,2-difluoroethyl (1-methyl-4-(6-methyl-5-(methylsulfonamido)pyridin-2-yl)-1H-1,2,3-triazol-5-yl)carbamate] | 34.1 nM
Cc1ccccc1[C@@H](C)OC(=O)Nc1c(-c2ccc(NS(C)(=O)=O)c(C)n2)nnn1C [Compound 42, (R)-1-(o-tolyl)ethyl (1-methyl-4-(6-methyl-5-(methylsulfonamido)pyridin-2-yl)-1H-1,2,3-triazol-5-yl)carbamate] | 46.1 nM
Cc1nc(-c2nnn(CC#N)c2NC(=O)O[C@@H](c2ccccc2)C(F)F)ccc1NS(C)(=O)=O [Compound 100, (S)-2,2-difluoro-1-phenylethyl(1-(cyanomethyl)-4-(6-methyl-5-(methylsulfonamido)pyridin-2-yl)-1H-1,2,3-triazol-5-yl)carbamate] | 114 nM
Cc1ccncc1C(C)OC(=O)Nc1c(-c2ccc(NS(C)(=O)=O)c(C)n2)nnn1C (centres unmarked) [Compound 82, 1-(4-methylpyridin-3-yl)ethyl (1-methyl-4-(6-methyl-5-(methylsulfonamido)pyridin-2-yl)-1H-1,2,3-triazol-5-yl)carbamate] | 2300 nM
CCCC[C@@H](C)OC(=O)Nc1c(-c2ccc(NS(C)(=O)=O)c(C)n2)nnn1C [Compound 28, (R)-hexan-2-yl (1-methyl-4-(6-methyl-5-(methylsulfonamido)pyridin-2-yl)-1H-1,2,3-triazol-5-yl)carbamate] | 171 nM
Cc1nc(-c2nnn(C)c2NC(=O)O[C@H](C)c2ccccc2Cl)ccc1N(C)S(C)(=O)=O [Compound 86, (R)-1-(2-chlorophenyl)ethyl(1-methyl-4-(6-methyl-5-(N-methylmethylsulfonamido)pyridin-2-yl)-1H-1,2,3-triazol-5-yl)carbamate] | 55.4 nM

More lines, now with the values ahead:

EC50 | SMILES
2470 nM | Cc1nc(-c2nnn(C)c2NC(=O)OC(C)c2cccnc2C(F)(F)F)ccc1NS(C)(=O)=O (centres unmarked) [Compound 85, 1-(2-(trifluoromethyl)pyridin-3-yl)ethyl (1-methyl-4-(6-methyl-5-(methylsulfonamido)pyridin-2-yl)-1H-1,2,3-triazol-5-yl)carbamate]
12.3 nM | C[C@@H](OC(=O)Nc1c(-c2ccc(NS(C)(=O)=O)cn2)nnn1C)c1cc(Cl)sc1Cl [Compound 110, (R)-1-(2,5-dichlorothiophen-3-yl)ethyl (1-methyl-4-(5-(methylsulfonamido)pyridin-2-yl)-1H-1,2,3-triazol-5-yl)carbamate]
61.7 nM | COc1nc(-c2nnn(C)c2NC(=O)O[C@H](C)c2ccccc2Cl)ccc1NS(C)(=O)=O [Compound 4, (R)-1-(2-chlorophenyl)ethyl (4-(6-methoxy-5-(methylsulfonamido)pyridin-2-yl)-1-methyl-1H-1,2,3-triazol-5-yl)carbamate]
31.4 nM | C[C@@H](OC(=O)Nc1c(-c2ncc(NS(C)(=O)=O)cc2F)nnn1C)c1ccccc1Cl [Compound 89, (R)-1-(2-chlorophenyl)ethyl(4-(3-fluoro-5-(methylsulfonamido)pyridin-2-yl)-1-methyl-1H-1,2,3-triazol-5-yl)carbamate]
8.7 nM | Cn1nnc(-c2ccc(NS(C)(=O)=O)cn2)c1NC(=O)O[C@H](CF)c1cccc(F)c1 [Compound 22, (S)-2-fluoro-1-(3-fluorophenyl)ethyl (1-methyl-4-(5-(methylsulfonamido)pyridin-2-yl)-1H-1,2,3-triazol-5-yl)carbamate]
87 nM | CC(OC(=O)Nc1c(-c2ccc(NS(C)(=O)=O)cn2)nnn1C)c1c(F)cccc1Cl (centres unmarked) [Compound 120, 1-(2-chloro-6-fluorophenyl)ethyl (1-methyl-4-(5-(methylsulfonamido)pyridin-2-yl)-1H-1,2,3-triazol-5-yl)carbamate]
78.1 nM | C[C@@H](OC(=O)Nc1c(-c2cc(F)c(NS(C)(=O)=O)cn2)nnn1C)c1cccnc1Cl [Compound 158, (R)-1-(2-chloropyridin-3-yl)ethyl (4-(4-fluoro-5-(methylsulfonamido)pyridin-2-yl)-1-methyl-1H-1,2,3-triazol-5-yl)carbamate]
218 nM | Cc1nc(-c2nnn(C)c2NC(=O)O[C@H](C)c2cccnc2Cl)ccc1NS(C)(=O)=O [Compound 68, (R)-1-(2-chloropyridin-3-yl)ethyl (1-methyl-4-(6-methyl-5-(methylsulfonamido)pyridin-2-yl)-1H-1,2,3-triazol-5-yl)carbamate]
5 nM | C[C@@H](OC(=O)Nc1c(-c2ccc(NS(C)(=O)=O)cn2)nnn1C)c1cc(F)ccc1F [Compound 17, (R)-1-(2,5-difluorophenyl)ethyl (1-methyl-4-(5-(methylsulfonamido)pyridin-2-yl)-1H-1,2,3-triazol-5-yl)carbamate]
36 nM | C[C@@H](OC(=O)Nc1c(-c2ccc(NS(C)(=O)=O)cn2)nnn1C)c1cccnc1Cl [Compound 23, (R)-1-(2-chloropyridin-3-yl)ethyl (1-methyl-4-(5-(methylsulfonamido)pyridin-2-yl)-1H-1,2,3-triazol-5-yl)carbamate]
81.7 nM | CNS(=O)(=O)Nc1ccc(-c2nnn(C)c2NC(=O)O[C@H](C)c2cc(F)cnc2Cl)nc1 [Compound 162, (R)-1-(2-chloro-5-fluoropyridin-3-yl)ethyl (1-methyl-4-(5-((N-methylsulfamoyl)amino)pyridin-2-yl)-1H-1,2,3-triazol-5-yl)carbamate]
42.1 nM | C[C@@H](OC(=O)Nc1c(-c2ccc(NS(C)(=O)=O)cn2)nnn1C)c1cc(Cl)cnc1F [Compound 111, (R)-1-(5-chloro-2-fluoropyridin-3-yl)ethyl (1-methyl-4-(5-(methylsulfonamido)pyridin-2-yl)-1H-1,2,3-triazol-5-yl)carbamate]
